Earlier results in patent US7687492B2, “1,2,4-Oxadiazole derivatives as dipeptidyl peptidase-IV inhibitors for the treatment or prevention of diabetes” (Merck Sharp & Dohme Corp., priority 2004, dated 2010).
One block for each compound: values may come before it.

What was measured:
[1] = rats; Transplantation, 63: 1495-1500 (1997)
[2] = mouse, cyclophosphamide-induced neutropenia; WO 99/56753
DP-IV = molecular target: T1, DP-IV (Homo sapiens, UniProt P27487)
T1 construct: GRF is rapidly degraded in plasma to GRF[3-44]; host or cells: plasma (endogenous enzyme activity)
T1 sequence (P27487 whole entry): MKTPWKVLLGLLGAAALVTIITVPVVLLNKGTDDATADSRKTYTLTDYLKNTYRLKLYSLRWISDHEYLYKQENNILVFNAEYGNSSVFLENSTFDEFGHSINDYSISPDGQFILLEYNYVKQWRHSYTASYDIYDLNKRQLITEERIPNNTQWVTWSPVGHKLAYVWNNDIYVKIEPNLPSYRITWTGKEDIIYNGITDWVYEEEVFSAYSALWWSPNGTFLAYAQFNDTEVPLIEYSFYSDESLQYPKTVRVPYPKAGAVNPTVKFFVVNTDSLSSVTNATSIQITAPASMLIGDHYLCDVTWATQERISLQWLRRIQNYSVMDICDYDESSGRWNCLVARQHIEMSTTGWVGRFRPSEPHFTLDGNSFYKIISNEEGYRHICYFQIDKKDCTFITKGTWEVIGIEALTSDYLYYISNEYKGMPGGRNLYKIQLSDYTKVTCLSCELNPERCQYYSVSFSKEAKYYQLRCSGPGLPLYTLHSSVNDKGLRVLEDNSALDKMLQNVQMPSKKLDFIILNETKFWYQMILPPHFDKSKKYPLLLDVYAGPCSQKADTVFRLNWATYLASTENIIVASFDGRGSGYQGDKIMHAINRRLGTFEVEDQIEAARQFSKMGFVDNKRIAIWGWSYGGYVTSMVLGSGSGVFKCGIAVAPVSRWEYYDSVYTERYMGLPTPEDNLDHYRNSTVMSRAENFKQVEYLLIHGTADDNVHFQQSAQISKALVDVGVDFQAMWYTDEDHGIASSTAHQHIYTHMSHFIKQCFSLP

Compound: CC(C)N1CCC(c2ccccc2)(c2ccccc2)CC1 [Prodipine, Pro-Pro-diphenyl-phosphonate]
cardiac allograft survival [1]: double cardiac allograft survival in rats from day 7 to day 14

Compound: CC(C)[C@H](N)C(=O)N1CCC[C@H]1B(O)O [Val-Boro-Pro]
hematopoiesis [2]: stimulated hematopoiesis

degradation of GRF in plasma to GRF[3-44] (DP-IV): prevented
Compound: diprotin A
